Experimental data reported in patent US10294248B2, “Beta-lactamase inhibitors” (VenatoRx Pharmaceuticals, Inc., priority 2013, dated 2019).

Tests used:
[1] = molecular target: T1, SHV-5 β-lactamase (Class A ESBL) (Klebsiella pneumoniae, UniProt P0A3M1); test: β-Lactamase inhibition, SHV-5; format: biochemical
T1 construct: made in house; host or cells: E. coli BL21(DE3)
Summary of the method: (§1)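 Untagged enzyme from E. coli BL21(DE3), purified by Capto S then Superdex 75; 15 min 37 °C preincubation with inhibitor; KPC-2 read with imipenem at 300 nm, SHV-5 with cefotaxime at 260 nm, OXA-1 with nitrocefin 100 μM final at 486 nm; 10 min kinetic read; IC50 vs uninhibited wells.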

[2] = tested on: K. pneumoniae 156319 expressing KPC-3; test: Broth microdilution MIC, K. pneumoniae 156319 KPC-3; format: cell-based; details: fixed 4 μg/mL meropenem; CAMHB, 16-20 hours at 37° C.
Summary of the method: (§2)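 Visual MIC readout follows 16-20 h incubation at 37° C. Final compound range spans 32 down to 0.25 μg/ml in two-fold steps, each well also carrying a β-lactam at a static 4 μg/ml, with inoculation done by the CLSI microdilution method in cation-adjusted Mueller Hinton broth.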

[3] = molecular target: T2, KPC-2 β-lactamase (Class A carbapenemase) (Klebsiella pneumoniae, UniProt Q9F663); test: β-Lactamase inhibition, KPC-2; format: biochemical; details: imipenem substrate, 300 nm; 15 min preincubation at 37° C., PBS pH 7.4
T2 construct: made in house; host or cells: E. coli BL21(DE3)
T2 sequence (Q9F663 25-293, looked up): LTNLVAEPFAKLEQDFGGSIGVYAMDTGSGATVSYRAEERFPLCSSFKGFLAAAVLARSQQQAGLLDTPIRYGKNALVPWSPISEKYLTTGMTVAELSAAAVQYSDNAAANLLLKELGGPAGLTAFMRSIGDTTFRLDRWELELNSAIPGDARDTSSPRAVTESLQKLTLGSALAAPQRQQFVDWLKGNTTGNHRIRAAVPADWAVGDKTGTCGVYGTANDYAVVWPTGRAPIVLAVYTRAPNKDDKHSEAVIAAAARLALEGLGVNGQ
Summary of the method: as §1

[4] = tested on: P. aeruginosa Ps296 expressing VIM-2; test: Broth microdilution MIC, P. aeruginosa Ps296 VIM-2; format: cell-based; details: fixed 4 μg/mL meropenem; CAMHB, 16-20 hours at 37° C.
Summary of the method: as §2

[5] = molecular target: T3, OXA-1 β-lactamase (Class D oxacillinase) (Escherichia coli, UniProt P13661); test: β-Lactamase inhibition, OXA-1; format: biochemical; details: nitrocefin 100 μM, 486 nm; 15 min preincubation at 37° C., PBS pH 7.4
T3 construct: made in house; host or cells: E. coli BL21(DE3)
T3 sequence (P13661 26-276): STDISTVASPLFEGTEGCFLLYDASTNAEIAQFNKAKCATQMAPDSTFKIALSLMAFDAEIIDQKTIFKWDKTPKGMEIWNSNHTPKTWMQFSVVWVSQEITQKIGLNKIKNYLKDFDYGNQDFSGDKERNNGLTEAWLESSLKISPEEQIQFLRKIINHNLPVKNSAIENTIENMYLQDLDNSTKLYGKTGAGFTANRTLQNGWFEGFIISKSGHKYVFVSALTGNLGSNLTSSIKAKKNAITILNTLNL
Summary of the method: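 Compounds are mixed with purified, untagged recombinant β-lactamase and held 15 min at 37 °C. Substrate is then added: nitrocefin (100 μM final) for OXA-1, imipenem for KPC-2, cefotaxime for SHV-5. Absorbance is followed immediately, and percent inhibition per concentration gives the IC50.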

[6] = tested on: K. pneumoniae A-1797 expressing KPC-2 and VIM-4; test: Broth microdilution MIC, K. pneumoniae A-1797 KPC-2/VIM-4; format: cell-based; details: fixed 4 μg/mL meropenem; CAMHB, 16-20 hours at 37° C.
Summary of the method: as §2

[7] = molecular target: T4, VIM-2 metallo-β-lactamase (Class B) (Pseudomonas aeruginosa, UniProt Q9K2N0); test: β-Lactamase inhibition, VIM-2; format: biochemical; details: nitrocefin 100 μM, 486 nm; 15 min preincubation at 37° C., PBS pH 7.4
T4 construct: made in house; host or cells: E. coli BL21(DE3)
Summary of the method: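 Metallo-β-lactamase VIM-2 activity was tracked spectrophotometrically at 486 nm with 100 μM nitrocefin over 10 min, following 15 min preincubation with compound at 37 °C; inhibition was calculated per concentration.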

[8] = tested on: S. aureus MSSA-7 producing penicillinase PC-1; test: Broth microdilution MIC, S. aureus MSSA-7 PC-1; format: cell-based; details: fixed 4 μg/mL piperacillin; CAMHB, 16-20 hours at 37° C.
Summary of the method: as §2

[9] = tested on: E. coli ESBL4 expressing CTX-M-15; test: Broth microdilution MIC, E. coli ESBL4 CTX-M-15; format: cell-based; details: fixed 4 μg/mL ceftazidime; CAMHB, 16-20 hours at 37° C.
Summary of the method: as §2

[10] = molecular target: T5, p99 AmpC β-lactamase (Class C) (Enterobacter cloacae, UniProt P05364); test: β-Lactamase inhibition, p99 AmpC; format: biochemical
T5 construct: made in house; host or cells: E. coli BL21(DE3)
T5 sequence (P05364 21-381): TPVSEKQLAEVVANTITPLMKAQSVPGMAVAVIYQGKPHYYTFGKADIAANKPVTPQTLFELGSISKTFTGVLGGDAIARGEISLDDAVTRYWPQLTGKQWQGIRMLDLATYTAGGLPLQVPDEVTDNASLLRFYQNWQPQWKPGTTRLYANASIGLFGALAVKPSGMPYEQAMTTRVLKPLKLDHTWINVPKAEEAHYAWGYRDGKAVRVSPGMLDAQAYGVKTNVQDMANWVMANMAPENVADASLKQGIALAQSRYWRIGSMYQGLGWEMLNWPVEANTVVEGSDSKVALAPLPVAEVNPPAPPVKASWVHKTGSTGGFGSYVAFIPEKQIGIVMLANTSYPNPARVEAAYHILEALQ

[11] = tested on: E. cloacae 144200 expressing Class C P99 AmpC; test: Broth microdilution MIC, E. cloacae 144200 p99 AmpC; format: cell-based; details: fixed 4 μg/mL ceftazidime; CAMHB, 16-20 hours at 37° C.
Summary of the method: as §2

T1 sequence (P0A3M1 22-286): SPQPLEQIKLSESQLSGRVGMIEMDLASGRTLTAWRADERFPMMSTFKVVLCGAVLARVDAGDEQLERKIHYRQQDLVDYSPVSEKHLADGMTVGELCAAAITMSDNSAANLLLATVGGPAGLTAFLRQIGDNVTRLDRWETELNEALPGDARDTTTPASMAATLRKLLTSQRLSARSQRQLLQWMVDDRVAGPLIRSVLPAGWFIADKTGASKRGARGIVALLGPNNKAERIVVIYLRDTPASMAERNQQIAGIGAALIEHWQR

SMILES | IC50 [1] [nM] | MIC of example compound in presence of fixed β-lactam: Fixed Mero, K. P. 156319 KPC-3 [2] | IC50 [3] [nM] | MIC of example compound in presence of fixed β-lactam: Fixed Mero, P. aerug. Ps296 VIM-2 [4] | IC50 [5] [nM] | MIC of example compound in presence of fixed β-lactam: Fixed Mero, K. P. A-1797 KPC-2 VIM-4 [6] | IC50 [7] [nM] | MIC of example compound in presence of fixed β-lactam: Fixed Pip, S. aureus MSSA-7 PC-1 [8] | MIC of example compound in presence of fixed β-lactam: Fixed CAZ, E. coli ESBL4 CTX-M-15 [9] | IC50 [10] [nM] | MIC of example compound in presence of fixed β-lactam: Fixed CAZ, E. cl. 144200 p99 AmpC [11]
NCCN1CCC(CCC(=O)N[C@H]2Cc3cccc(C(=O)O)c3OB2O)CC1 [Example 31, 3-{3-[1-(2-Amino-ethyl)-piperidin-4-yl]-propionylamino}-2-hydroxy-3,4-dihydro-2H-benzo[e][1,2]oxaborinine-8-carboxylic acid] | 100 to 1000 | C (the MIC in the presence of <4 μg/mL of a β-lactamase inhibitor) | < 100 | C (the MIC in the presence of <4 μg/mL of a β-lactamase inhibitor) | < 100 | B (the MIC in the presence of between 8 and 32 μg/mL of a β-lactamase inhibitor) | 1000 to 10000 | C (the MIC in the presence of <4 μg/mL of a β-lactamase inhibitor) | C (the MIC in the presence of <4 μg/mL of a β-lactamase inhibitor) | < 100 | C (the MIC in the presence of <4 μg/mL of a β-lactamase inhibitor)
O=C(CC1CCNCC1)N[C@H]1Cc2cccc(C(=O)O)c2OB1O [Example 32, 2-Hydroxy-3-(2-piperidin-4-yl-acetylamino)-3,4-dihydro-2H-benzo[e][1,2]oxaborinine-8-carboxylic acid] | 10000 to 100000 | A (an MIC of the fixed β-lactam antibiotic in the presence of >32 μg/mL of a β-lactamase inhibitor) | 100 to 1000 | A (an MIC of the fixed β-lactam antibiotic in the presence of >32 μg/mL of a β-lactamase inhibitor) | 100 to 1000 | A (an MIC of the fixed β-lactam antibiotic in the presence of >32 μg/mL of a β-lactamase inhibitor) | 10000 to 100000 | C (the MIC in the presence of <4 μg/mL of a β-lactamase inhibitor) | C (the MIC in the presence of <4 μg/mL of a β-lactamase inhibitor) | < 100 | C (the MIC in the presence of <4 μg/mL of a β-lactamase inhibitor)
N=C(N)NCCN1CCC(CCC(=O)N[C@H]2Cc3cccc(C(=O)O)c3OB2O)CC1 [Example 34, 3-{3-[1-(2-Guanidino-ethyl)-piperidin-4-yl]-propionylamino}-2-hydroxy-3,4-dihydro-2H-benzo[e][1,2]oxaborinine-8-carboxylic acid] | < 100 | A (an MIC of the fixed β-lactam antibiotic in the presence of >32 μg/mL of a β-lactamase inhibitor) | 100 to 1000 | A (an MIC of the fixed β-lactam antibiotic in the presence of >32 μg/mL of a β-lactamase inhibitor) | 100 to 1000 | A (an MIC of the fixed β-lactam antibiotic in the presence of >32 μg/mL of a β-lactamase inhibitor) | 10000 to 100000 | C (the MIC in the presence of <4 μg/mL of a β-lactamase inhibitor) | C (the MIC in the presence of <4 μg/mL of a β-lactamase inhibitor) | 100 to 1000 | C (the MIC in the presence of <4 μg/mL of a β-lactamase inhibitor)
N#CCN1CCC(CC(=O)N[C@H]2Cc3cccc(C(=O)O)c3OB2O)CC1 [Example 35, 3-[2-(1-Cyanomethyl-piperidin-4-yl)-acetylamino]-2-hydroxy-3,4-dihydro-2H-benzo[e][1,2]oxaborinine-8-carboxylic acid] | 100 to 1000 | B (the MIC in the presence of between 8 and 32 μg/mL of a β-lactamase inhibitor) | 100 to 1000 | A (an MIC of the fixed β-lactam antibiotic in the presence of >32 μg/mL of a β-lactamase inhibitor) | 100 to 1000 | B (the MIC in the presence of between 8 and 32 μg/mL of a β-lactamase inhibitor) | 10000 to 100000 | C (the MIC in the presence of <4 μg/mL of a β-lactamase inhibitor) | C (the MIC in the presence of <4 μg/mL of a β-lactamase inhibitor) | 100 to 1000 | C (the MIC in the presence of <4 μg/mL of a β-lactamase inhibitor)
NCCN1CCN(CC(=O)N[C@H]2Cc3cccc(C(=O)O)c3OB2O)C(=O)C1 [Example 36, 3-{2-[4-(2-Amino-ethyl)-2-oxo-piperazin-1-yl]-acetylamino}-2-hydroxy-3,4-dihydro-2H-benzo[e][1,2]oxaborinine-8-carboxylic acid] | < 100 | B (the MIC in the presence of between 8 and 32 μg/mL of a β-lactamase inhibitor) | 100 to 1000 | B (the MIC in the presence of between 8 and 32 μg/mL of a β-lactamase inhibitor) | < 100 | B (the MIC in the presence of between 8 and 32 μg/mL of a β-lactamase inhibitor) | 1000 to 10000 | C (the MIC in the presence of <4 μg/mL of a β-lactamase inhibitor) | C (the MIC in the presence of <4 μg/mL of a β-lactamase inhibitor) | < 100 | C (the MIC in the presence of <4 μg/mL of a β-lactamase inhibitor)
N=C(N)NCC1CCCN(CC(=O)N[C@H]2Cc3cccc(C(=O)O)c3OB2O)C1 (stereo partly drawn) [Example 37, 3-[2-(3-Guanidinomethyl-piperidin-1-yl)-acetylamino]-2-hydroxy-3,4-dihydro-2H-benzo[e][1,2]oxaborinine-8-carboxylic acid] | 100 to 1000 | C (the MIC in the presence of <4 μg/mL of a β-lactamase inhibitor) | 100 to 1000 | A (an MIC of the fixed β-lactam antibiotic in the presence of >32 μg/mL of a β-lactamase inhibitor) | 100 to 1000 | B (the MIC in the presence of between 8 and 32 μg/mL of a β-lactamase inhibitor) | 100 to 1000 | C (the MIC in the presence of <4 μg/mL of a β-lactamase inhibitor) | C (the MIC in the presence of <4 μg/mL of a β-lactamase inhibitor) | < 100 | C (the MIC in the presence of <4 μg/mL of a β-lactamase inhibitor)
